The target in one assay is Histamine H4 receptor (Homo sapiens, UniProt Q9H3N8).
The target in a further assay is Histamine H3 receptor (Homo sapiens, UniProt Q9Y5N1).

These results are taken from BindingDB's records for doi:10.1124/mol.59.3.420 (The R. W. Johnson Pharmaceutical Research Institute, 2001).

Molecules are shown by their SMILES.

Sequence of Histamine H4 receptor (Q9H3N8 whole entry): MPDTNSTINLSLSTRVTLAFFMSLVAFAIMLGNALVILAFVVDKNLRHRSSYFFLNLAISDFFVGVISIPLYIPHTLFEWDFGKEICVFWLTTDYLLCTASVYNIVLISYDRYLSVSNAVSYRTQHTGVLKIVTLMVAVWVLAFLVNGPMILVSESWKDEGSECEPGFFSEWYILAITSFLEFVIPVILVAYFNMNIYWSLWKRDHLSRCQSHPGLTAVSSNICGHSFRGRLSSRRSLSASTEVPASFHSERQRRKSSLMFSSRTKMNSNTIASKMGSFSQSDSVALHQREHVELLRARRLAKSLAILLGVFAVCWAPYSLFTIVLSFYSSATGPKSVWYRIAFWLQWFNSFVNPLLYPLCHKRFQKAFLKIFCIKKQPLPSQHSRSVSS
Sequence of Histamine H3 receptor (Q9Y5N1 whole entry): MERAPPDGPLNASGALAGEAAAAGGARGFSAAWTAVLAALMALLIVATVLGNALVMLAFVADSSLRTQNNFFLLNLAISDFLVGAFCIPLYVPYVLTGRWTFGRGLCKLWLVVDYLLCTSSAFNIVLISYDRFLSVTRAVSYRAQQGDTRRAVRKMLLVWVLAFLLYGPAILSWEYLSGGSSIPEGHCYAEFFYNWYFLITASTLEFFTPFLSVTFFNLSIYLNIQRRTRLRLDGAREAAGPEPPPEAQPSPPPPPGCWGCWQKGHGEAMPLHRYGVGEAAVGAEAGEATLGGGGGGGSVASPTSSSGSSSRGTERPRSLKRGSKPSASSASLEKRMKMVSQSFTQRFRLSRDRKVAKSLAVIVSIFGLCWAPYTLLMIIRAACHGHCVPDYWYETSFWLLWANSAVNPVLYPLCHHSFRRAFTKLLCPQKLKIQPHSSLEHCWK

Consider `CN/C(=N/CCSCc1nc[nH]c1C)NC#N`, for which the Ki at Histamine H4 receptor is more than 10000 nM. In the case of `CN/C([CH-][N+](=O)[O-])=[NH+]\CCSCc1ccc(CN(C)C)o1`, the inhibition constant Ki at Histamine H3 receptor and on Histamine H4 receptor was more than 10000 nM throughout.

Turning to `C[C@@H](N)Cc1c[nH]cn1`, the Ki at Histamine H4 receptor was found to be 146 nM. Compound `CNC(=S)NCCCCc1cnc[nH]1` [1-[4-(1H-imidazol-5-yl)butyl]-3-methylthiourea] displayed an inhibition constant (Ki) at Histamine H3 receptor of 84 nM. This counts as double-digit nanomolar. Turning to `N=C(N)SCCc1cnc[nH]1` [2-(3H-imidazol-4-yl)ethylsulfanylmethanimidamide], the inhibition constant (Ki) amounted to 0.3 nM at Histamine H3 receptor and 2.7 nM on Histamine H4 receptor. The corresponding values for `Cc1[nH]cnc1CSCCNC(=N)NCCCc1c[nH]cn1` [2-[3-(1H-imidazol-5-yl)propyl]-1-(2-{[(5-methyl-1H-imidazol-4-yl)methyl]sulfanyl}ethyl)guanidine] are 67 nM and 12.3 nM.

Compound `c1nc(CC2CCNCC2)c[nH]1` [4-(1H-imidazol-4-ylmethyl)piperidine] came in with an inhibition constant (Ki) at Histamine H4 receptor of 9 nM.

On Histamine H4 receptor, `CN1CCC(=C2c3ccccc3C=Cc3ccccc32)CC1` [5-(1-methylpiperidylidene-4)-5H-dibenzo(a,d)cyclopheptene] had an inhibition constant Ki of more than 10000 nM.

Consider `CNCCc1c[nH]cn1` [N(alpha)-Methylhistamine], for which the Ki at Histamine H3 receptor came to 0.5 nM; on Histamine H4 receptor, 23 nM.

Compound `N#Cc1ccc(OCCCN2CCCCC2)cc1` [UCL-2138] had an inhibitory constant (Ki) on Histamine H4 receptor of more than 10000 nM. On the same count and under the same terms, the value for `NC(=NCc1ccc(Cl)cc1)SCCCc1cnc[nH]1` [VUF 9153] was 12.8 nM. `CN(C)CCCSC(=N)N` [[3-(carbamimidoylsulfanyl)propyl]dimethylamine] registered a Ki on Histamine H3 receptor of 825 nM.

A word on the Ki: it is a dissociation constant, usually derived from enzyme kinetics or from competition with a known ligand.
